Assay results taken from publication PMC10223284, “Category-Based Toxicokinetic Evaluations of Data-Poor Per- and Polyfluoroalkyl Substances (PFAS) using Gas Chromatography Coupled with Mass Spectrometry” (Toxics, 2023).
Values joined by “and” are separate entries in the source; they are usually repeats but may differ in a detail not shown here. Equal entries are not always repeated.

Assays:
[1] = Abiotic loss in negative controls of the hepatocyte clearance assay (cell-free media, metabolically inactivated hepatocytes); assay type: in vitro ADME; settings: flag for stability failure in hepatocyte clearance assay controls (1 or Fst = fail, 0 = pass)
Procedure: The hepatic metabolic stability assay measures the loss of a parent compound over time in a substrate-depletion approach. Briefly, hepatocyte suspensions, after a viability assessment, were diluted in complete William’s medium E (containing dexamethasone and cell maintenance cocktail B) prior to addition to 96-well polypropylene plates containing an equal volume of media spiked with the test compound (1 μM assay concentration; assay cell density = 50,000 cells/100 μL) and maintained at 37 °C with shaking. At each time point, relevant plates were crashed with an equal volume of ice-cold acetonitrile, centrifuged, and supernatant transferred to a new plate prior to storage at <−70 °C until quantitative analysis. Controls, run in parallel, included cell-free (i.e., media only) and metabolically inactivated hepatocytes to evaluate abiotic chemical stability in the aqueous media matrix with and without cellular protein. In preliminary runs, these controls were run at T0 and T240 only. If significant instability was noted, the hepatocyte clearance assay was rerun, including cell-free samples at each time point and metabolically inactivated hepatocytes at selected time points.
Negative controls, including media only and metabolically inactivated hepatocyte controls, were included to monitor abiotic loss (i.e., background clearance) during the assay. Where significant compound loss occurred using the analysis described above, background clearance rates were calculated and used to background-adjust hepatic metabolic clearance rates. Where chemicals were cleared prior to the end of the analysis, at 240 min (T240), the corresponding negative control timepoint was used for background subtraction. Any chemicals displaying a 50% or more abiotic loss at T120 were deemed unstable and were excluded from further analyses.

[2] = system: human plasma; assay: Ultracentrifugation (UC) plasma protein binding assay, fraction unbound in plasma (fup); settings: for Aqueous Fraction / Aqueous Fraction, Run-specific Avg: amount measured in aqueous fraction after ultracentrifugation, unit not given; for Aqueous Fraction: replicates A, B, C; for Aqueous Fraction, Run-specific Avg: run average; for Mean fu: fraction unbound in human plasma, ultracentrifugation, some values based on eLOQ; for Fup.Med: median fraction unbound in plasma; for Fup.Med / Fup.point: UC assay Level4; for Fup.point: point estimate of fraction unbound in plasma; for Fraction Unbound (fu), replicates A, B, C: single replicate of one UC run (aqueous fraction / Time 5 hr)
[3] = system: human plasma; assay: Chemical stability in plasma over the UC assay time course (T5hr/T1hr); settings: for Time 1 hr / Time 1 hr, Run-specific Avg: amount measured in plasma sample at 1 hr; for Time 1 hr / Time 5 hr: replicates A, B, C; for Time 1 hr / Time 1 hr, Run-specific Avg / Time 5 hr / Time 5 hr, Run-specific Avg: unit not given; for Time 1 hr, Run-specific Avg / Time 5 hr, Run-specific Avg: run average; for Time 5 hr / Time 5 hr, Run-specific Avg: amount measured in plasma sample at 5 hr; for % remaining_PPB: chemical remaining in plasma over the PPB assay time course, NS = no significant loss; for PPB_Stab_Fail: flag for stability failure in the plasma protein binding assay (1 = fail, 0 = pass); for Fstable.Med: median fraction stable in plasma, UC assay Level4; for Stability (T5hr/ T1hr), replicates A, B, C: single replicate of one UC run
[4] = mean T5hr/T1hr ratio in plasma over all replicates/runs
[5] = average of one UC run (run date in line above)
[6] = mean fraction unbound over all replicates and runs, UC assay, human plasma
[7] = mean T5hr/T1hr ratio over all replicates and runs, plasma

Structure (SMILES)	Hep_Stab_Fail [1]	Mean fu [2]	Fup.Med [2]	Fup.point [2]	% remaining_PPB [3] [%]	PPB_Stab_Fail [3]	Fstable.Med [3]	also measured
OCC(F)(F)C(F)(F)C(F)(F)C(F)(F)C(F)(F)C(F)(F)C(F)(F)C(F)(F)C(F)(F)C(F)(F)C(F)(F)F [11:1 Fluorotelomer alcohol]	1	0.0570	0.0578	0.0621	100	0	0.341	Aqueous Fraction [2]: 595.593 and 1494.34 and 453.605; Aqueous Fraction, Run-specific Avg [2]: 847.84; Fraction Unbound (fu), Run-specific Avg ([2]; average of one UC run): 0.0569; Time 1 hr [3]: 16624.1 and 16003.4 and 18170.7; Time 1 hr, Run-specific Avg [3]: 16932.71; Time 5 hr [3]: 8697.13 and 19831.5 and 16897.3; Time 5 hr, Run-specific Avg [3]: 14264.32; Stability (T5hr/ T1hr), Run-specific Avg ([3]; average of one UC run): 0.842; Mean Stability [3, 4]: 0.909
NCC(F)(F)C(F)(F)C(F)(F)C(F)(F)C(F)(F)C(F)(F)C(F)(F)F [1H,1H-Perfluorooctylamine]	Fst	0.105	0.605	0.345	58	0	0.0977	Aqueous Fraction [2]: 245.64 and 173.583 and 303.476; Aqueous Fraction, Run-specific Avg [2]: 240.90; Fraction Unbound (fu), Run-specific Avg ([2]; average of one UC run): 0.08; Mean Fu ([2]; mean fraction unbound in human plasma over all UC replicates/runs): 0.081; Time 1 hr [3]: 5598.62 and 5535.59 and 4647.69; Time 1 hr, Run-specific Avg [3]: 5260.63; Time 5 hr [3]: 3087.52 and 3094.29 and 2839.44; Time 5 hr, Run-specific Avg [3]: 3090.91; Stability (T5hr/ T1hr), Run-specific Avg ([3]; average of one UC run): 0.588; Mean Stability [3, 4]: 0.577
OCC(F)(F)C(F)(F)C(F)(F)C(F)F [1H,1H,5H-Perfluoropentanol]	1	0.3616	0.791	0.355	–	0	1	Fraction Unbound (fu), Run-specific Avg [2, 5]: 0.36; Mean Fu [2, 6]: 0.362; Fraction Unbound (fu), replicates A, B, C [2]: 0.445 and 0.315 and 0.324; Stability (T5hr/ T1hr), Run-specific Avg [3, 5]: 0.858; Mean Stability [3, 7]: 0.855; Stability (T5hr/ T1hr), replicates A, B, C [3]: 0.775 and 0.902 and 0.887
FC(F)(F)COC(OCC(F)(F)F)OCC(F)(F)F [tris(Trifluoroethoxy)methane]	1	0.1728	0.132	0.0994	66	0	0.362	Fraction Unbound (fu), Run-specific Avg [2, 5]: 0.17; Mean Fu [2, 6]: 0.173; Fraction Unbound (fu), replicates A, B, C [2]: 0.186 and 0.1626 and 0.1699; Stability (T5hr/ T1hr), Run-specific Avg [3, 5]: 0.660; Mean Stability [3, 7]: 0.662; Stability (T5hr/ T1hr), replicates A, B, C [3]: 0.6799 and 0.6407 and 0.6662
CN(C(=O)C(F)(F)C(F)(F)C(F)(F)F)[Si](C)(C)C [N-Methyl-N-trimethylsilylheptafluorobutyramide]	1	0.5451	0.532	0.545	–	0	0.274	Fraction Unbound (fu), Run-specific Avg [2, 5]: 0.55; Mean Fu [2, 6]: 0.545; Fraction Unbound (fu), replicates A, B, C [2]: 0.507 and 0.525 and 0.603; Stability (T5hr/ T1hr), Run-specific Avg [3, 5]: 0.935; Mean Stability [3, 7]: 0.935; Stability (T5hr/ T1hr), replicates A, B, C [3]: 0.978 and 0.906 and 0.921
CC(C)(C)C(=O)CC(=O)C(F)(F)C(F)(F)C(F)(F)F [(Heptafluorobutanoyl)pivaloylmethane]	1	–	–	–	–	–	–	–
OCCC(F)(F)C(F)(F)C(F)(F)C(F)(F)C(F)(F)C(F)(F)F [6:2 Fluorotelomer alcohol]	1	–	0.232	0.152	100	0	0.205	Aqueous Fraction [2]: 219.897 and 3328.34 and 176.612; Aqueous Fraction, Run-specific Avg [2]: 1241.62; Fraction Unbound (fu), Run-specific Avg ([2]; average of one UC run): 0.0229; Time 1 hr [3]: 10242.5 and 11181.9 and 10094.7; Time 1 hr, Run-specific Avg [3]: 10506.38; Time 5 hr [3]: 8145.88 and 10628.7 and 9411.26; Time 5 hr, Run-specific Avg [3]: 9387.28; Stability (T5hr/ T1hr), Run-specific Avg ([3]; average of one UC run): 0.893; Mean Stability [3, 4]: 0.895
C=CC(=O)OCC(F)(F)C(F)(F)C(F)(F)C(F)(F)COC(=O)C=C [DTXSID80379721]	1	–	–	–	0	1	–	–
N=C(N)C(F)(F)C(F)(F)C(F)(F)C(F)(F)C(F)(F)C(F)(F)C(F)(F)F [Perfluorooctanamidine]	1	0.0253	4.95E-09	0.0261	67	0	0.0291	Stability (T5hr/ T1hr), Run-specific Avg [3, 5]: 0.890; Mean Stability [3, 7]: 0.892; Stability (T5hr/ T1hr), replicates A, B, C [3]: 0.858 and 0.887 and 0.929
C=CC(=O)OCC(F)(F)C(F)(F)C(F)(F)C(F)(F)C(F)(F)C(F)(F)C(F)(F)C(F)F [1H,1H,9H-Perfluorononyl acrylate]	1	–	2.02E-08	0.315	0	1	0.000116	–
OCCCC(F)(F)C(F)(F)C(F)(F)C(F)(F)C(F)(F)C(F)(F)C(F)(F)F [7:3 Fluorotelomer alcohol]	1	0.0230	–	–	–	0	–	–
FC(F)(F)C(F)(F)C(F)(F)C(F)(F)C(F)(F)C(F)(F)C(F)(F)CCI [1-Iodo-1H,1H,2H,2H-perfluorononane]	Fst	0.1123	0.108	0.112	51.7	0	0.358	–
CO[Si](C)(CCC(F)(F)C(F)(F)C(F)(F)C(F)(F)C(F)(F)C(F)(F)F)OC [DTXSID40235137]	1	–	–	–	0	1	–	–
OCC(F)(F)OC(F)(F)C(F)(F)OC(F)(F)C(F)(F)OC(F)(F)F [Fluorinated triethylene glycol monomethyl ether]	1	–	–	–	0	1	–	–
OCC(F)(F)C(F)(F)C(F)(F)C(F)(F)C(F)(F)C(F)F	1	0.0537	0.0526	0.0549	–	0	0.222	Mean Fu [2, 6]: 0.054; Fraction Unbound (fu), replicates A, B, C [2]: 0.052 and 0.046 and 0.064; Stability (T5hr/ T1hr), Run-specific Avg [3, 5]: 0.870; Mean Stability [3, 7]: 0.875; Stability (T5hr/ T1hr), replicates A, B, C [3]: 0.819 and 1.002 and 0.803
FC(F)(F)C(F)(F)C(F)(F)C(F)(F)C(F)(F)C(F)(F)C(F)(F)I [1-Iodopentadecafluoroheptane]	1	–	0.907	–	16	1	0.202	–
C=CC(=O)OCC(F)(F)C(F)(F)C(F)(F)C(F)(F)C(F)(F)C(F)(F)C(F)(F)F [1H,1H-Perfluorooctyl acrylate]	1	–	–	–	6	1	–	–
FC(F)(F)C(F)(F)C(F)(F)CC1CO1 (centres unmarked) [1H,1H-Heptafluorobutyl epoxide]	1	–	–	–	0	1	–	–
CC(O)C(F)(F)C(F)(F)F (centres unmarked) [DTXSID70880134]	1	–	–	–	0	1	–	–
